We go through one substance from US20200215099A1, “NON-ANTICOAGULANT SULFATED OR SULFONATED POLYSACCHARIDES” (Baxalta Incorporated, priority 2012, published 2020).

Assay [1] relates to FVIII-inhibited guinea pigs. Put plainly: Ex-vivo whole blood TEG in FVIII-inhibited guinea pigs. More on the design: species or system guinea pig. As to the method: Male Dunkin Hartley guinea pigs were intravenously injected with a goat anti-human FVIII inhibitor plasma at a dose of 42 BU/kg (1.9 mL/kg) 45 min before sampling. After 40 min, NASP was intravenously administered to the animals at 0.05, 0.15, 0.45 or 1.35 mg/kg (N=5 per group). 300 U/kg FEIBA (Baxter, BioScience, Austria) served as a positive control and saline as a vehicle control. Shortly after the injection, the Vena cava was punctured and blood was collected in the presence of citrate (ratio 1:9) for whole blood TEG analysis. Measurements were performed using a thromboelastography (TEG) hemostasis analyzer 5000 (Haemonetics Corp, USA) at 37° C. Every blood sample was prepared by pre-warming 204 of a 0.2 M CaCl2) solution in a TEG cuvette at 37° C. adding 340 μL of blood, mixing, and then immediately starting the TEG recording. The measurement proceeded for at least 120 min. The TEG parameters of clotting time (R-time), rapidity of clot strengthening (angle) and maximum clot firmness (MA) were recorded. The primary endpoint R-time was plotted and the median value of the different dosing groups compared with each other.

The subject of assay [2] is normal human plasma. Put plainly: Activated partial thromboplastin time assay (aPTT). It counts as biochemical. As to conditions: 50% increase clotting time / CAT EC50. Here is the method:
The aPTT assay was performed to study anticoagulant activities of NASP. In brief, 50 μL of thawed normal human plasma pool (George King Biomedical, Overland Park, Kans.) was mixed with 5 μL of NASP sample (0-60 μg/mL final plasma concentration). NASPs were diluted in imidazole buffer (3.4 g/L imidazole; 5.85 g/L NaCl, pH 7.4) containing 1% albumin (Baxter, Austria). After addition of 50 μL aPTT reagent (STA APTT, Roche) the samples were incubated for 4 min at 37° C. Clotting was initiated by 50 μL of 25 mM CaCl2 solution (Baxter, Austria) and recorded for up to 5 min. All pipetting steps and clotting time measurements were carried out with an ACL Pro Elite (Instrumentation Laboratory, Bedford, Mass.) instrument. Samples were run in duplicate.
For data analysis, clotting time is plotted against the NASP concentration. Concentrations where the clotting time is 50% increased over the normal plasma control are determined using a linear curve fit.

Assay [3] concerns FVIII-inhibited human whole blood. Put plainly: Rotation thromboelastometry (ROTEM). The settings on record: for Activity: normal blood 100, FVIII-inh. blood 0. Here is the method:
NASPs (0.4-11 μg/mL) were studied in fresh citrated human whole blood by rotation thromboelastometry (ROTEM), an assay that allows continuous visco-elastic assessment of whole blood clot formation and firmness. Blood was incubated with anti-human FVIII plasma raised in goat (Baxter Bioscience, Austria) at 50 BU/mL to simulate hemophilic conditions. Clotting was triggered with 0.044 pM tissue factor (TF) (PRP reagent, Thrombinoscope BV) in the presence of 40 μg/mL CTI (Haematologic Technologies Inc., Essex Junction, Vt., USA). Then 300 μL of the pre-warmed (37° C.) FVIII-inhibited blood was recalcified with 20 μL of a 0.2 M CaCl2 solution. Clot formation was monitored using a ROTEM instrument (Pentapharm Munich, Germany) at 37° C. The final assay concentration of rTF was 44 fM. The ROTEM recording was started immediately and measured for at least 120 min. Each blood sample was analyzed in two independent measurements.
The thromboelastographic parameters of clotting time (CT), clot formation time (CFT) and maximum clot firmness (MCF) were recorded in accordance with the manufacturer's instructions. The first derivative of the thromboelastogram data is plotted to obtain a graph of velocity (mm/s) against time (s). From this graph, the maximum velocity (maxV) and the time at which the maximum velocity is reached (maxV-t) are also determined.

In the case of sulfated 6-carboxy-icodextrin, in assay [1] (0.15 and 0.45 mg/kg i.v., no clotting after 2 hours without treatment), the “median R-time (clotting time)” value amounted to 110 min. The “procoagulant effect, reduction in R-time (in words)” value in assay [1] (TEG five minutes after i.v. administration, NASP at 0.15 and 0.45 mg/kg) was “procoagulant effect superior to vehicle control”. Further, in assay [2], the “Ratio aPTT/CAT” value is recorded as “very good”. For the same substance, the CFT came out at 388 s in assay [3] (+0.41 μg/ml), 172 s in assay [3] (+1.23 μg/ml), 223 s in assay [3] (+3.7 μg/ml) and 934 s in assay [3] (+11.1 μg/ml). Also, the CT was determined as 1542 s in assay [3] (+0.41 μg/ml), 1078 s in assay [3] (+1.23 μg/ml), 1152 s in assay [3] (+3.7 μg/ml) and 2526 s in assay [3] (+11.1 μg/ml). The MCF in assay [3] (+0.41 μg/ml) amounted to 62 mm; in assay [3] (+1.23 μg/ml) it was 63.5 mm; in assay [3] (+3.7 μg/ml), 63 mm. Also, the Activity is on record as 108% in assay [3] (+0.41 μg/ml), 129% in assay [3] (+1.23 μg/ml), 125% in assay [3] (+3.7 μg/ml) and 63% in assay [3] (+11.1 μg/ml). Further, in assay [3] (ROTEM, 0.044 pM TF), the “restoration of coagulation (in words)” value is reported as “restores coagulation in FVIII-inhibited whole blood”.
